Publication PMC10158761, “Screening of an annexin‐A2‐targeted heptapeptide for pancreatic adenocarcinoma localization” (Molecular Oncology, 2022)
“Also recorded” adds a separate entry of the source. Primed or numbered codes have the meaning given here. Where no end group is shown, it is not given here. The star is where a group is joined. FITC = O=C1OC2(c3ccc(O)cc3Oc3cc(O)ccc32)c2ccc(NC(=S)*)cc21; PEG3′ = not defined here; Ahx = NCCCCCC(=O)O

Tests used:
[1] = system: PANC‐1 cells; experiment: Fluorescence imaging of PANC‐1 cells with labelled YW7 probes; type: cell-based, human; settings: 1, 2, 4 μM, 1 h; red filter 700–780 nm
Description: (§1) PANC‐1 and HPDE6‐C7 cells were seeded in six‐well plates at a density of 3 × 10^5 cells·mL^−1 and incubated overnight. The cells were incubated with 25 μM FITC‐YW7 for 30 min and 1 h for flow cytometry analysis of bound and internalized peptide, and cells were incubated with 1, 2, 4 μM FITC‐YW7 or Cy7‐YW7 for 1 h for fluorescence imaging of the live cells. Cells were washed with PBS three times and centrifuged for 5 min after 37 °C incubation. Si‐ANXA2‐ or si‐NC‐transfected PANC‐1 cells were detached with nonenzymatic dissociation solution from six‐well plates. 20 μM FITC‐YW7 was added to the suspended cells and incubated at 37 °C for 15 min. Cells were washed with PBS and centrifuged for 5 min repeating three times. The supernatant was then discarded and the cells were resuspended in PBS. Percent of total cells with fluorescent signals was determined by flow cytometry using a FACSCelesta flow cytometer (BD Biosciences, San Jose, CA, USA). Fluorescence intensity was quantified by an imaging system (Berthold LB983, Bad Wildbad, Sttugart, Germany).
(§2) Supplementary file MOL2-17-872-s002.tif: Fig. S3. Fluorescent‐labeled YW7 probes imaging in vitro. […] P values were determined using paired Student's t‐test. *P < 0.05 versus HPDE6‐C7 (Cy7‐YW7); ^# P < 0.05, ^## P < 0.01 versus PBS; ^$ P < 0.05, ^$$ P < 0.01 versus Cy7. […]

[2] = system: PANC‐1 and HPDE6‐C7 cells; experiment: Fluorescence imaging, PANC‐1 versus HPDE6‐C7 cells; type: cell-based, human
Description: as §1, §2

[3] = system: PANC‐1 xenograft tumors; experiment: In vivo NIRF imaging of PANC‐1 xenograft mice; design: species or system mouse (BALB/c nude)
Excerpt: During imaging, mice were anesthetized with 2% isoflurane.

[4] = system: ANXA2 (purified recombinant); experiment: ANXA2 affinity column binding with LC/MS detection; settings: ANXA2 0.7 mg on CNBr‐activated Sepharose; 1 mg YW7; 1 h at 4 °C; UPLC‐G2XS‐QTOF/MS
Description: To prepare the ANXA2‐immobilized affinity column, CNBr‐activated Sepharose (GE Healthcare Bio‐Sciences AB, Uppsala, Sweden) was swelled by 1 mM HCl and coupling buffer. Purified recombinant ANXA2 of 0.7 mg was loaded onto the resin and incubated at 4 °C overnight. After blocking with ethanolamine, the resin was washed with 50 mM Tris–HCl (pH 8.0) and 50 mM Glycine‐0.5 M NaCl (pH 4.0) buffers alternatively for three rounds. Then, the resin was washed with PBS and 1 mg YW7 dissolved in DEPC was added to the ANXA2‐loaded resin. After binding for 1 h at 4 °C, the resin was washed again with 50 mM Tris–HCl (pH 8.0) and 50 mM Glycine‐0.5 M NaCl (pH 4.0) buffers. Eluents were eventually mixed with 50% acetonitrile and analyzed by UPLC‐G2XS‐QTOF/MS (Waters, Milford, MA, USA).

[5] = system: ANXA2; experiment: siRNA knockdown of ANXA2 in PANC‐1 cells (western blotting, qPCR); type: cell-based, human; settings: 48 h after transfection, lipofectamine 3000; n = 3
Description: ANXA2 expression in human cells and patients' tissues was determined by western blotting. Cells were lysed on ice in RIPA Lysis Buffer (Beyotime, Shanghai, China) with 1% PMSF for 30 min. Fresh tissues were suspended in RIPA Lysis Buffer with 1% PMSF, homogenized for 2 min, and then lysed on ice for another 30 min. The supernatant was collected and the protein concentration was determined after centrifuging for 10 min at 8000 g . The protein concentration was detected by BCA Protein Assay Kit (Beyotime). Proteins extracts were separated by 12% SDS/PAGE gel and then transferred to the PVDF membranes. Next, the membranes were blocked with 5% skimmed milk powder at room temperature for 1 h. Rabbit primary antibodies specific to ANXA2 (1 : 1000; Cell Signaling Technology, Billerica, CA, USA; #8235S) were used to incubate the membranes at 4 °C overnight. Anti‐β‐tubulin mouse primary antibodies (1 : 5000; EarthOx Life Science, Millbrae, CA, USA; E021040‐01) were applied as a loading control. […] The band density was quantified by IMAGEJ software (National Institutes of Health, Bethesda, MD, USA).
Small interfering RNA (primer sequences: forward 5′‐[…]‐3′ and reverse 5′‐[…]‐3′) was used to downregulate the expression of ANXA2 (si‐ANXA2). […] Knockdown efficiency was evaluated by western blotting and quantitative real‐time PCR. […]

[6] = molecular target: T1, GST-fused ANXA2 recombinant protein (UniProt P07355 1-339); experiment: MST; FITC-YW7 at constant concentration, unlabeled ANXA2 diluted in a gradient; MST buffer with 0.05% Tween-20; Monolith NT.115, standard capillaries; apparent KD; settings: both partners purified
T1 construct: product of 62 kD with GST; No cleavage of GST is described; The size of 62 kD would fit whole ANXA2 (36 kD) plus GST; also called GST-ANXA2; annexin A2; source: E. coli BL21 (DE3), purified (GST tag purification resin)

[7] = molecular target: T2, ANXA2 on pancreatic cells (human (endogenous in PANC-1 and …, UniProt P07355 1-339)); experiment: other fluorescence titration; PANC-1 cells suspended in FITC-YW7 (0-1.5 μM), 37 °C, 30 min; washed with PBS; fluorescence of the cells read in a plate reader (490/518 nm); apparent Kd; settings: one partner purified
T2 construct: annexin A2, endogenous in the human pancreatic cancer cell line PANC-1 and the normal human pancreatic ductal cell line HPDE6-C7; which cell line was used is told in each assay's format; also called annexin A2; source: endogenous, on PANC-1 cells; endogenous, on HPDE6-C7 cells
T2 sequence (P07355 whole entry): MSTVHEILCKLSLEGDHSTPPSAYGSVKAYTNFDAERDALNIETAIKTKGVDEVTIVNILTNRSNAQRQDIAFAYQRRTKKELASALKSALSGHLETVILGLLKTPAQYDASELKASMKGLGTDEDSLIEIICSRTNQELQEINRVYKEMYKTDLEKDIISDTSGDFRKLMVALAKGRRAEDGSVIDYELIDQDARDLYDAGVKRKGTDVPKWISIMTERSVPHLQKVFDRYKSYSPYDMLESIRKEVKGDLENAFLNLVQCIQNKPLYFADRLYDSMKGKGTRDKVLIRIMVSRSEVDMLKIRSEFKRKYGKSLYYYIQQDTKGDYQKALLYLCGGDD

T1 sequence (P07355 whole entry, the tested form may be a part): as the sequence (P07355 whole entry) above

Cy7‐YW7: Cy7 linked to the N terminal of YW7 peptide via spacer of PEG3; NIRF probe ({Cy7-PEG3′}-YWRGVYN)
internalization by PANC‐1 cells, concentration dependence [1]: preferred to be internalized by PANC‐1 cells in a dose‐dependent manner | fluorescence signal, PANC‐1 versus HPDE6‐C7 ([2]; 4 μM in PBS): stronger fluorescence signal of Cy7‐YW7 was detected after internalization into PANC‐1 cells compared to HPDE6‐C7 | uptake in PANC‐1 compared to HPDE6‐C7 cells ([2]; summary statement of abstract): significantly higher uptake in PANC‐1 cells | TBR, as quoted in discussion ([3]; 8 nmol i.v.): ~ 2.7 | earliest time of significant tumor‐to‐background contrast ([3]; 8 nmol i.v.): 1 h | tumor‐to‐background ratio (TBR) ([3]; 8 nmol i.v., 2.5 h after injection, n = 4, mean ± SD, P < 0.05 Cy7‐YW7 vs Cy7): 2.7 ± 0.6 | tumor fluorescence / contrast ([3]; 8 nmol i.v., Cy7‐YW7 versus Cy7, n = 4): stronger fluorescence signals in tumor tissues; also recorded: higher than Cy7; also recorded: enhanced tumor sensitivity and specificity from 1 h after injection | time of highest TBR after injection ([3]; 8 nmol i.v., images at 0, 1, 2, 2.5, 3 h): 2.5 h | TBR compared to Cy7 alone ([3]; intravenous injection, in abstract): ~ 2.7 ‐fold

YWRGVYN [YW7]
binding to ANXA2 column [4]: eluted from ANXA2‐loading column after incubation with ANXA2 recombinant protein for 1 h and identified

si‐ANXA2: Small interfering RNA, forward 5′‐AGACCAAAGGUGUGGAUGAUU‐3′ and reverse 5′‐UCAUCCACACCUUUGGUCUUU‐3′ (chemistry not fully specified)
ANXA2 protein and mRNA level after knockdown [5]: Downregulated ANXA2 relative protein (D, E) and mRNA (F) levels

B1: FITC-labeled YW7 (peptide)
peptide: {FITC-Ahx}-YWRGVYN
notes: heptapeptide YW7 selected from the Ph.D.-7 phage display library; also called FITC-YW7; source: synthetic peptide, Sangon Biotech
Kd [6]: 12 µM | Kd [7]: 0.0866 µM
